Measured values taken from patent US10131652B2, “Pyrimidinyloxy benzene derivatives as herbicides” (E. I. DU PONT DE NEMOURS AND COMPANY, priority 2014, dated 2018).

What was measured:
Format in all cases: in vivo
Conditions in all cases: scale 0 to 100
[1] = tested on: morningglory (Ipomoea coccinea); test: Test F pre-/postemergence plant response
Outline: (§1)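 Seeds were sown in silt loam and sprayed preemergence; in parallel, plants at 2–18 cm (1- to 4-leaf) received postemergence sprays. Test chemicals were in a non-phytotoxic solvent with surfactant. After 14–21 days in the greenhouse, injury was rated visually against controls on a 0–100 scale (100 = complete control).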

[2] = tested on: Italian ryegrass (Lolium multiflorum); test: Test F pre-/postemergence plant response
Outline: as §1

soybean (Glycine max) = test: Test F pre-/postemergence plant response
Outline: as §1

[3] = tested on: Brazilian crabgrass (Digitaria horizontalis); test: Test F pre-/postemergence plant response
Outline: as §1

[4] = tested on: barnyardgrass (Echinochloa crus-galli); test: Test F pre-/postemergence plant response
Outline: as §1

[5] = tested on: dayflower (Virginia (VA) dayflower, Commelina virginica); test: Test F pre-/postemergence plant response
Outline: as §1

[6] = tested on: large (Lg) crabgrass (Digitaria sanguinalis); test: Test F pre-/postemergence plant response
Outline: as §1

[7] = tested on: lambsquarters (Chenopodium album); test: Test F pre-/postemergence plant response
Outline: as §1

[8] = tested on: surinam grass (Brachiaria decumbens); test: Test F pre-/postemergence plant response
Outline: as §1

[9] = tested on: giant foxtail (Setaria faberii); test: Test F pre-/postemergence plant response
Outline: as §1

[10] = tested on: sandbur (southern sandbur, Cenchrus echinatus); test: Test F pre-/postemergence plant response
Outline: as §1

[11] = tested on: waterhemp_RES1 (ALS & Triazine resistant common waterhemp, Amaranthus rudis); test: Test F postemergence plant response
Outline: (§2)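 Postemergence application to plants 2–18 cm tall (1- to 4-leaf stage), then held in greenhouse 14–21 days. Visual rating against untreated controls on a 0–100 scale (0 no effect, 100 complete control).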

[12] = tested on: waterhemp_RES2 (ALS & HPPD resistant common waterhemp, Amaranthus rudis); test: Test F postemergence plant response
Outline: as §2

CC(F)(F)c1cc(-c2ccccc2Oc2ncc(Br)cn2)no1 [Compound 149]
Plant response rating, Morningglory ([1]; 16 g ai/ha Preemergence): 0
Plant response rating, Morningglory ([1]; 31 g ai/ha Preemergence): 0
Plant response rating, Morningglory ([1]; 125 g ai/ha Preemergence): 10
Plant response rating, Morningglory ([1]; Preemergence): 0
Plant response rating, Ryegrass, Italian ([2]; 16 g ai/ha Postemergence): 0
Plant response rating, Ryegrass, Italian ([2]; 16 g ai/ha Preemergence): 0
Plant response rating, Ryegrass, Italian ([2]; 31 g ai/ha Postemergence): 10
Plant response rating, Ryegrass, Italian ([2]; 31 g ai/ha Preemergence): 0
Plant response rating, Ryegrass, Italian ([2]; 62 g ai/ha Postemergence): 10
Plant response rating, Ryegrass, Italian ([2]; 125 g ai/ha Postemergence): 5
Plant response rating, Ryegrass, Italian ([2]; 125 g ai/ha Preemergence): 40
Plant response rating, Ryegrass, Italian ([2]; Preemergence): 20
Plant response rating, Soybean (soybean (Glycine max); 16 g ai/ha Postemergence): 50
Plant response rating, Soybean (soybean (Glycine max); 16 g ai/ha Preemergence): 0
Plant response rating, Soybean (soybean (Glycine max); 31 g ai/ha Postemergence): 85
Plant response rating, Soybean (soybean (Glycine max); 31 g ai/ha Preemergence): 0
Plant response rating, Soybean (soybean (Glycine max); 62 g ai/ha Postemergence): 90
Plant response rating, Soybean (soybean (Glycine max); 125 g ai/ha Postemergence): 90
Plant response rating, Soybean (soybean (Glycine max); 125 g ai/ha Preemergence): 30
Plant response rating, Soybean (soybean (Glycine max); Preemergence): 0
Plant response rating, Crabgrass, Brazil ([3]; 16 g ai/ha Postemergence): 20
Plant response rating, Crabgrass, Brazil ([3]; 16 g ai/ha Preemergence): 0
Plant response rating, Crabgrass, Brazil ([3]; 31 g ai/ha Postemergence): 20
Plant response rating, Crabgrass, Brazil ([3]; 31 g ai/ha Preemergence): 15
Plant response rating, Crabgrass, Brazil ([3]; 62 g ai/ha Postemergence): 20
Plant response rating, Crabgrass, Brazil ([3]; 62 g ai/ha Preemergence): 35
Plant response rating, Crabgrass, Brazil ([3]; 125 g ai/ha Postemergence): 25
Plant response rating, Crabgrass, Brazil ([3]; 125 g ai/ha Preemergence): 85
Plant response rating, Barnyardgrass ([4]; 16 g ai/ha Postemergence): 0
Plant response rating, Barnyardgrass ([4]; 16 g ai/ha Preemergence): 0
Plant response rating, Barnyardgrass ([4]; 31 g ai/ha Postemergence): 5
Plant response rating, Barnyardgrass ([4]; 31 g ai/ha Preemergence): 0
Plant response rating, Barnyardgrass ([4]; 62 g ai/ha Postemergence): 10
Plant response rating, Barnyardgrass ([4]; 62 g ai/ha Preemergence): 15
Plant response rating, Barnyardgrass ([4]; 125 g ai/ha Postemergence): 10
Plant response rating, Barnyardgrass ([4]; 125 g ai/ha Preemergence): 35
Plant response rating, Dayflower, VA ([5]; 16 g ai/ha Postemergence): 10
Plant response rating, Dayflower, VA ([5]; 16 g ai/ha Preemergence): 0
Plant response rating, Dayflower, VA ([5]; 31 g ai/ha Postemergence): 20
Plant response rating, Dayflower, VA ([5]; 31 g ai/ha Preemergence): 0
Plant response rating, Dayflower, VA ([5]; 62 g ai/ha Postemergence): 40
Plant response rating, Dayflower, VA ([5]; 62 g ai/ha Preemergence): 5
Plant response rating, Dayflower, VA ([5]; 125 g ai/ha Postemergence): 50
Plant response rating, Dayflower, VA ([5]; 125 g ai/ha Preemergence): 40
Plant response rating, Crabgrass, Large ([6]; 16 g ai/ha Preemergence): 0
Plant response rating, Crabgrass, Large ([6]; 31 g ai/ha Preemergence): 0
Plant response rating, Crabgrass, Large ([6]; 62 g ai/ha Preemergence): 70
Plant response rating, Crabgrass, Large ([6]; 125 g ai/ha Preemergence): 85
Plant response rating, Lambsquarters ([7]; 31 g ai/ha Preemergence): 0
Plant response rating, Lambsquarters ([7]; 125 g ai/ha Preemergence): 100
Plant response rating, Lambsquarters ([7]; Preemergence): 100
Plant response rating, Surinam Grass ([8]; 16 g ai/ha Preemergence): 0
Plant response rating, Surinam Grass ([8]; 31 g ai/ha Preemergence): 0
Plant response rating, Surinam Grass ([8]; 125 g ai/ha Preemergence): 15
Plant response rating, Surinam Grass ([8]; Preemergence): 15
Plant response rating, Foxtail, Giant ([9]; 16 g ai/ha Preemergence): 0
Plant response rating, Foxtail, Giant ([9]; 31 g ai/ha Preemergence): 20
Plant response rating, Foxtail, Giant ([9]; 62 g ai/ha Preemergence): 40
Plant response rating, Foxtail, Giant ([9]; 125 g ai/ha Preemergence): 85
Plant response rating, Sandbur ([10]; 16 g ai/ha Postemergence): 0
Plant response rating, Sandbur ([10]; 16 g ai/ha Preemergence): 0
Plant response rating, Sandbur ([10]; 31 g ai/ha Postemergence): 5
Plant response rating, Sandbur ([10]; 31 g ai/ha Preemergence): 0
Plant response rating, Sandbur ([10]; 62 g ai/ha Postemergence): 15
Plant response rating, Sandbur ([10]; 125 g ai/ha Postemergence): 10
Plant response rating, Sandbur ([10]; 125 g ai/ha Preemergence): 10
Plant response rating, Sandbur ([10]; Preemergence): 0
Plant response rating, Waterhemp_RES1 ([11]; 16 g ai/ha Postemergence): 80
Plant response rating, Waterhemp_RES1 ([11]; 31 g ai/ha Postemergence): 85
Plant response rating, Waterhemp_RES1 ([11]; 62 g ai/ha Postemergence): 90
Plant response rating, Waterhemp_RES1 ([11]; 125 g ai/ha Postemergence): 100
Plant response rating, Waterhemp_RES2 ([12]; 16 g ai/ha Postemergence): 95
Plant response rating, Waterhemp_RES2 ([12]; 31 g ai/ha Postemergence): 95
Plant response rating, Waterhemp_RES2 ([12]; 62 g ai/ha Postemergence): 100
Plant response rating, Waterhemp_RES2 ([12]; 125 g ai/ha Postemergence): 100

FC(F)c1cc(-c2c(Cl)cccc2Oc2ncc(Cl)cn2)no1 [Compound 179]
Plant response rating, Morningglory ([1]; 16 g ai/ha Preemergence): 0
Plant response rating, Morningglory ([1]; 31 g ai/ha Preemergence): 0
Plant response rating, Morningglory ([1]; 125 g ai/ha Preemergence): 25
Plant response rating, Morningglory ([1]; Preemergence): 35
Plant response rating, Ryegrass, Italian ([2]; 16 g ai/ha Postemergence): 0
Plant response rating, Ryegrass, Italian ([2]; 16 g ai/ha Preemergence): 0
Plant response rating, Ryegrass, Italian ([2]; 31 g ai/ha Postemergence): 0
Plant response rating, Ryegrass, Italian ([2]; 31 g ai/ha Preemergence): 0
Plant response rating, Ryegrass, Italian ([2]; 62 g ai/ha Postemergence): 0
Plant response rating, Ryegrass, Italian ([2]; 125 g ai/ha Postemergence): 0
Plant response rating, Ryegrass, Italian ([2]; 125 g ai/ha Preemergence): 10
Plant response rating, Ryegrass, Italian ([2]; Preemergence): 0
Plant response rating, Soybean (soybean (Glycine max); 16 g ai/ha Postemergence): 60
Plant response rating, Soybean (soybean (Glycine max); 16 g ai/ha Preemergence): 0
Plant response rating, Soybean (soybean (Glycine max); 31 g ai/ha Postemergence): 50
Plant response rating, Soybean (soybean (Glycine max); 31 g ai/ha Preemergence): 0
Plant response rating, Soybean (soybean (Glycine max); 62 g ai/ha Postemergence): 75
Plant response rating, Soybean (soybean (Glycine max); 125 g ai/ha Postemergence): 90
Plant response rating, Soybean (soybean (Glycine max); 125 g ai/ha Preemergence): 35
Plant response rating, Soybean (soybean (Glycine max); Preemergence): 0
Plant response rating, Crabgrass, Brazil ([3]; 16 g ai/ha Postemergence): 10
Plant response rating, Crabgrass, Brazil ([3]; 16 g ai/ha Preemergence): 0
Plant response rating, Crabgrass, Brazil ([3]; 31 g ai/ha Postemergence): 20
Plant response rating, Crabgrass, Brazil ([3]; 31 g ai/ha Preemergence): 0
Plant response rating, Crabgrass, Brazil ([3]; 62 g ai/ha Postemergence): 20
Plant response rating, Crabgrass, Brazil ([3]; 62 g ai/ha Preemergence): 15
Plant response rating, Crabgrass, Brazil ([3]; 125 g ai/ha Postemergence): 30
Plant response rating, Crabgrass, Brazil ([3]; 125 g ai/ha Preemergence): 25
Plant response rating, Barnyardgrass ([4]; 16 g ai/ha Postemergence): 0
Plant response rating, Barnyardgrass ([4]; 16 g ai/ha Preemergence): 0
Plant response rating, Barnyardgrass ([4]; 31 g ai/ha Postemergence): 0
Plant response rating, Barnyardgrass ([4]; 31 g ai/ha Preemergence): 0
Plant response rating, Barnyardgrass ([4]; 62 g ai/ha Postemergence): 0
Plant response rating, Barnyardgrass ([4]; 62 g ai/ha Preemergence): 0
Plant response rating, Barnyardgrass ([4]; 125 g ai/ha Postemergence): 0
Plant response rating, Barnyardgrass ([4]; 125 g ai/ha Preemergence): 5
Plant response rating, Dayflower, VA ([5]; 16 g ai/ha Preemergence): 0
Plant response rating, Dayflower, VA ([5]; 31 g ai/ha Preemergence): 0
Plant response rating, Dayflower, VA ([5]; 62 g ai/ha Preemergence): 35
Plant response rating, Dayflower, VA ([5]; 125 g ai/ha Preemergence): 85
Plant response rating, Crabgrass, Large ([6]; 16 g ai/ha Preemergence): 0
Plant response rating, Crabgrass, Large ([6]; 31 g ai/ha Preemergence): 0
Plant response rating, Crabgrass, Large ([6]; 62 g ai/ha Preemergence): 35
Plant response rating, Crabgrass, Large ([6]; 125 g ai/ha Preemergence): 60
Plant response rating, Lambsquarters ([7]; 16 g ai/ha Preemergence): 98
Plant response rating, Lambsquarters ([7]; 31 g ai/ha Preemergence): 100
Plant response rating, Lambsquarters ([7]; 125 g ai/ha Preemergence): 100
Plant response rating, Lambsquarters ([7]; Preemergence): 100
Plant response rating, Surinam Grass ([8]; 16 g ai/ha Preemergence): 0
Plant response rating, Surinam Grass ([8]; 31 g ai/ha Preemergence): 0
Plant response rating, Surinam Grass ([8]; 125 g ai/ha Preemergence): 0
Plant response rating, Surinam Grass ([8]; Preemergence): 0
Plant response rating, Foxtail, Giant ([9]; 16 g ai/ha Preemergence): 0
Plant response rating, Foxtail, Giant ([9]; 31 g ai/ha Preemergence): 0
Plant response rating, Foxtail, Giant ([9]; 62 g ai/ha Preemergence): 30
Plant response rating, Foxtail, Giant ([9]; 125 g ai/ha Preemergence): 20
Plant response rating, Sandbur ([10]; 16 g ai/ha Postemergence): 0
Plant response rating, Sandbur ([10]; 16 g ai/ha Preemergence): 0
Plant response rating, Sandbur ([10]; 31 g ai/ha Postemergence): 0
Plant response rating, Sandbur ([10]; 31 g ai/ha Preemergence): 0
Plant response rating, Sandbur ([10]; 62 g ai/ha Postemergence): 5
Plant response rating, Sandbur ([10]; 125 g ai/ha Postemergence): 10
Plant response rating, Sandbur ([10]; 125 g ai/ha Preemergence): 0
Plant response rating, Sandbur ([10]; Preemergence): 0
Plant response rating, Waterhemp_RES1 ([11]; 16 g ai/ha Postemergence): 90
Plant response rating, Waterhemp_RES1 ([11]; 31 g ai/ha Postemergence): 90
Plant response rating, Waterhemp_RES1 ([11]; 62 g ai/ha Postemergence): 100
Plant response rating, Waterhemp_RES1 ([11]; 125 g ai/ha Postemergence): 100
Plant response rating, Waterhemp_RES2 ([12]; 16 g ai/ha Postemergence): 95
Plant response rating, Waterhemp_RES2 ([12]; 31 g ai/ha Postemergence): 100
Plant response rating, Waterhemp_RES2 ([12]; 62 g ai/ha Postemergence): 100
Plant response rating, Waterhemp_RES2 ([12]; 125 g ai/ha Postemergence): 100
